This is an account of results in ChEMBL document CHEMBL1641496, “Imidazolylchromanone oxime ethers as potential anticonvulsant agents: Anticonvulsive evaluation in PTZ-kindling model of epilepsy and SAR study” (Bioorg Med Chem Lett, 2011).

The subject of series [1] is Rattus norvegicus. The experiment in a line: Anticonvulsant activity against PTZ-induced kindling Wistar rat model assessed as seizure latency at 30 mg/kg, ip. The class given is functional. As to conditions: route intraperitoneal.
Series [2] concerns Rattus norvegicus. In words: Anticonvulsant activity against PTZ-induced kindling Wistar rat model assessed as duration of behavirol seizure at 30 mg/kg, ip. The class given is functional. As to conditions: route intraperitoneal.
Series [3] deals with Rattus norvegicus. The experiment in a line: Neurotoxicity in Wistar rat assessed as motor impairment at 30 mg/kg, ip by rotarod test. The class given is toxicity, organism-based. Also on record: dose 30 mg/kg, route intraperitoneal. As to conditions: in vivo.
The test system of series [4] is Rattus norvegicus. In words: Neurotoxicity in Wistar rat at 30 mg/kg, ip by rotarod test. The class given is toxicity, organism-based. Also on record: dose 30 mg/kg, route intraperitoneal. Conditions: in vivo. A general note: In the rotarod test animals must keep their balance on a rotating rod.
The test system of series [5] is Rattus norvegicus. The experiment in a line: Neurotoxicity in Wistar rat assessed as motor impairment at 100 mg/kg, ip by rotarod test. The class given is toxicity, organism-based. Also on record: dose 100 mg/kg, route intraperitoneal. Conditions: in vivo.
In series [6] the test system is Rattus norvegicus. In words: Anticonvulsant activity against PTZ-induced kindling Wistar rat model assessed as seizure latency at 100 mg/kg, ip. The class given is functional. Conditions: route intraperitoneal.
The subject of series [7] is Rattus norvegicus. In words: Anticonvulsant activity against PTZ-induced kindling Wistar rat model assessed as duration of behavirol seizure at 100 mg/kg, ip. As to conditions: route intraperitoneal. The class given is functional.
Series [8] has as its system Rattus norvegicus. The experiment in a line: Anticonvulsant activity against PTZ-induced kindling Wistar rat model assessed as duration of behavirol seizure at 200 mg/kg, ip. The class given is functional. As to conditions: route intraperitoneal.
The subject of series [9] is Rattus norvegicus. The experiment in a line: Anticonvulsant activity against PTZ-induced kindling Wistar rat model assessed as seizure latency at 200 mg/kg, ip. Conditions: route intraperitoneal. The class given is functional.

`O=[N+]([O-])O.c1ccc(CO/N=C2/c3ccccc3OCC2n2ccnc2)cc1` (racemic): the Time stood at 274 s in the series with Rattus norvegicus [1] and 49.8 s with Rattus norvegicus [2].

Consider `O=[N+]([O-])O.c1ccc(CO/N=C2\c3ccccc3OCC2n2ccnc2)cc1` (racemic), for which the Time with Rattus norvegicus [1] is reported as 288 s; with Rattus norvegicus [2], 50.8 s.

In the case of `Clc1ccc(CO/N=C2/c3ccccc3OCC2n2ccnc2)cc1.O=[N+]([O-])O` (racemic), the Time in the series on Rattus norvegicus [1] amounted to 237 s; in the series with Rattus norvegicus [2], 52 s.

On to `Clc1ccc(CO/N=C2\c3ccccc3OCC2n2ccnc2)cc1.O=[N+]([O-])O` (racemic), for which the Time with Rattus norvegicus [1] came out at 258 s; in the series with Rattus norvegicus [2], 51 s.

As to `Brc1ccc(CO/N=C2/c3ccccc3OCC2n2ccnc2)cc1.O=[N+]([O-])O` (racemic), the Time in the series with Rattus norvegicus [1] came out at 268 s; in the series on Rattus norvegicus [2], 54.8 s.

As to `Brc1ccc(CO/N=C2\c3ccccc3OCC2n2ccnc2)cc1.O=[N+]([O-])O` (racemic), the Time turned out to be 261 s in the series with Rattus norvegicus [1] and 56.5 s with Rattus norvegicus [2].

On to `Clc1ccc(CO/N=C2/c3ccccc3OCC2n2ccnc2)c(Cl)c1.O=[N+]([O-])O` (racemic), for which the Time in the series on Rattus norvegicus [1] is recorded as 358 s; in the series with Rattus norvegicus [2], 49.2 s.

Take `Clc1ccc(CO/N=C2\c3ccccc3OCC2n2ccnc2)c(Cl)c1.O=[N+]([O-])O` (racemic): the Time with Rattus norvegicus [1] worked out at 293 s; in the series on Rattus norvegicus [2], 49.3 s.

In the case of `Clc1ccc(CO/N=C2/c3ccccc3OCC2n2ccnc2)cc1Cl.O=[N+]([O-])O` (racemic), the Time in the series with Rattus norvegicus [1] came out at 285 s; in the series on Rattus norvegicus [2] it was 50.3 s.

Regarding `Clc1ccc(CO/N=C2\c3ccccc3OCC2n2ccnc2)cc1Cl.O=[N+]([O-])O` (racemic), the values for the Time in the series with Rattus norvegicus [1] and with Rattus norvegicus [2] were 266 s and 51.8 s, respectively.

Take `Clc1ccc2c(c1)OCC(n1ccnc1)/C2=N\OCc1ccccc1.O=[N+]([O-])O` (racemic): the Time in the series on Rattus norvegicus [1] came to 323 s; in the series with Rattus norvegicus [2] it was 46.7 s.

`Clc1ccc(CO/N=C2/c3ccc(Cl)cc3OCC2n2ccnc2)cc1.O=[N+]([O-])O` (racemic): the figures for the Time with Rattus norvegicus [1] and in the series with Rattus norvegicus [2] were 467 s and 47 s, respectively.

As to `Clc1ccc(CO/N=C2/c3ccc(Cl)cc3OCC2n2ccnc2)c(Cl)c1.O=[N+]([O-])O` (racemic), the figures for the Activity in the series with Rattus norvegicus [3] and in the series on Rattus norvegicus [4] were 25% and “Non-toxic”, respectively. Further, the figures for the Time with Rattus norvegicus [1] and with Rattus norvegicus [2] were 715 s and 40.3 s, respectively.

With `Clc1ccc2c(c1)OCC(n1ccnc1)/C2=N\OCc1ccc(Cl)c(Cl)c1.O=[N+]([O-])O` (racemic), the Time in the series on Rattus norvegicus [1] came out at 271 s; in the series on Rattus norvegicus [2], 48.5 s.

On to `CC1Oc2ccccc2/C(=N/OCc2ccccc2)C1n1ccnc1.O=[N+]([O-])O` (racemic), for which the Time was determined as 259 s in the series on Rattus norvegicus [1] and 52.7 s in the series with Rattus norvegicus [2].

Turning to `CC1Oc2ccccc2/C(=N/OCc2ccc(Cl)cc2)C1n1ccnc1.O=[N+]([O-])O` (racemic), the Time in the series with Rattus norvegicus [1] was found to be 286 s; with Rattus norvegicus [2], 49.7 s.

`CC1Oc2ccccc2/C(=N/OCc2ccc(Br)cc2)C1n1ccnc1.O=[N+]([O-])O` (racemic): the Time in the series with Rattus norvegicus [1] is reported as 305 s; in the series on Rattus norvegicus [2], 51.3 s.

Regarding `CC1Oc2ccccc2/C(=N/OCc2ccc(F)cc2)C1n1ccnc1.O=[N+]([O-])O` (racemic), the Time with Rattus norvegicus [1] was found to be 263 s; in the series on Rattus norvegicus [2], 52.3 s.

As for `CC1Oc2ccccc2/C(=N/OCc2cccc(F)c2)C1n1ccnc1.O=[N+]([O-])O` (racemic), the Time is 321 s in the series with Rattus norvegicus [1] and 51.5 s in the series on Rattus norvegicus [2].

Regarding `CC1Oc2ccccc2/C(=N/OCc2ccccc2F)C1n1ccnc1.O=[N+]([O-])O` (racemic), the Time with Rattus norvegicus [1] amounted to 254 s; with Rattus norvegicus [2], 51.7 s.

Regarding `CC1Oc2ccccc2/C(=N/OCc2ccc(Cl)cc2Cl)C1n1ccnc1.O=[N+]([O-])O` (racemic), the Time in the series with Rattus norvegicus [1] amounted to 644 s; in the series on Rattus norvegicus [2] it was 42.8 s.

Turning to `CC1Oc2ccccc2/C(=N/OCc2ccc(Cl)c(Cl)c2)C1n1ccnc1.O=[N+]([O-])O` (racemic), the Time in the series on Rattus norvegicus [1] is given as 367 s; with Rattus norvegicus [2], 47.5 s.

`CC1Oc2cc(Cl)ccc2/C(=N/OCc2ccccc2)C1n1ccnc1.O=[N+]([O-])O` (racemic): the Time with Rattus norvegicus [1] was 282 s; with Rattus norvegicus [2], 50.7 s.

Turning to `CC1Oc2cc(Cl)ccc2/C(=N/OCc2ccc(Cl)cc2)C1n1ccnc1.O=[N+]([O-])O` (racemic), the Time was 286 s in the series on Rattus norvegicus [1] and 45.5 s in the series with Rattus norvegicus [2].

Turning to `CC1Oc2cc(Cl)ccc2/C(=N/OCc2ccc(Cl)cc2Cl)C1n1ccnc1.O=[N+]([O-])O` (racemic), the Time with Rattus norvegicus [1] was 776 s; in the series with Rattus norvegicus [2] it was 342 s. Also, the Activity was 50% in the series with Rattus norvegicus [5] and “Non-toxic” with Rattus norvegicus [4].

For the compound `CCCC(CCC)C(=O)[O-].[Na+]` [VALPROATE SODIUM], the Time is on record as 817 s with Rattus norvegicus [6], 40.5 s in the series on Rattus norvegicus [7], 26.5 s with Rattus norvegicus [8] and 900 s in the series with Rattus norvegicus [9].
